Patent US10329289B2, “6,7-dihydro-5H-pyrrolo[3,4-B]pyridin-5-one allosteric modulators of the M4 muscarinic acetylcholine receptor” (Merck Sharp & Dohme Corp., priority 2015, dated 2019)

target: T1, human M4 muscarinic acetylcholine receptor (Homo sapiens, UniProt P08173); test: human FLIPR-based M4 PAM assay (Ca2+ mobilization, CHO-K1 cells with human M4 receptor and Gαqi5); assay type: cell-based; conditions: acetylcholine at 20% of maximum response, read-out: M4 PAM IP
T1 construct: expressed in transfected cells; host or cells: CHO-K1
T1 sequence (P08173 1-479): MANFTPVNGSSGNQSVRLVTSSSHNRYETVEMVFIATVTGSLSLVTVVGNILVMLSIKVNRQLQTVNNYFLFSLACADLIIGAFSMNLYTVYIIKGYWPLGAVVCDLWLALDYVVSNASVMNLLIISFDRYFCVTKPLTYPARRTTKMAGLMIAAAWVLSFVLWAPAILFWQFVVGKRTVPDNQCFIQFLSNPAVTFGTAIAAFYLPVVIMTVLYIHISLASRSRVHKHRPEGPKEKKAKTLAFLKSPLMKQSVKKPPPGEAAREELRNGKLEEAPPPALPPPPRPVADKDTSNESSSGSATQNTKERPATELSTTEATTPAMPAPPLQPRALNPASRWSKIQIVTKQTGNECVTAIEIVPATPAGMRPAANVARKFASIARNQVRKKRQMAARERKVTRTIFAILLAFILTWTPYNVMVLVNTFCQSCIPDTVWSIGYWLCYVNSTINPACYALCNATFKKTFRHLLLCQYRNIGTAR
Method in brief: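 CHO-K1 cells stably expressing human M4 and chimeric Gαqi5 were dye-loaded ~1 h at 37 °C and read for Ca2+ fluorescence. Compound followed by acetylcholine at an EC20 (sometimes an EC70 third addition); inflection point from a 4-parameter logistic fit.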

| EC50 | SMILES |
| --- | --- |
| 1680 nM | Cc1cc2c(nc1N1CCC(Oc3ccc4c(cnn4C)c3)CC1)[C@H](CO)N(C)C2=O [Example 360, (R)-7-(hydroxymethyl)-3,6-dimethyl-2-(4-((1-methyl-1H-indazol-5-yl)oxy)piperidin-1-yl)-6,7-dihydro-5H-pyrrolo[3,4-b]pyridin-5-one] |
| 85 nM | CCc1cc2c(nc1N1CCC(Oc3ccc4c(c3)COCC4)CC1)[C@@H](CO)N(C)C2=O [Example 361, (S)-3-ethyl-7-(hydroxymethyl)-2-(4-(isochroman-7-yloxy)piperidin-1-yl)-6-methyl-6,7-dihydro-5H-pyrrolo[3,4-b]pyridin-5-one] |
| 1290 nM | CCc1cc2c(nc1N1CCC(Oc3ccc4c(c3)COCC4)CC1)[C@H](CO)N(C)C2=O [Example 362, (R)-3-ethyl-7-(hydroxymethyl)-2-(4-(isochroman-7-yloxy)piperidin-1-yl)-6-methyl-6,7-dihydro-5H-pyrrolo[3,4-b]pyridin-5-one] |
| 100 nM | CCc1cc2c(nc1N1CCC(Oc3ccc4c(cnn4C)c3)CC1)[C@@H](CO)N(C)C2=O [Example 363, (S)-3-ethyl-7-(hydroxymethyl)-6-methyl-2-(4-((1-methyl-1H-indazol-5-yl)oxy)piperidin-1-yl)-6,7-dihydro-5H-pyrrolo[3,4-b]pyridin-5-one] |
| 3770 nM | CCc1cc2c(nc1N1CCC(Oc3ccc4c(cnn4C)c3)CC1)[C@H](CO)N(C)C2=O [Example 364, (R)-3-ethyl-7-(hydroxymethyl)-6-methyl-2-(4-((1-methyl-1H-indazol-5-yl)oxy)piperidin-1-yl)-6,7-dihydro-5H-pyrrolo[3,4-b]pyridin-5-one] |
| 26 nM | CCc1cc2c(nc1N1CCC(Oc3ccc4c(c3)OCC4)CC1)[C@@H](CO)N(C)C2=O [Example 365, (S)-2-(4-((2,3-dihydrobenzofuran-6-yl)oxy)piperidin-1-yl)-3-ethyl-7-(hydroxymethyl)-6-methyl-6,7-dihydro-5H-pyrrolo[3,4-b]pyridin-5-one] |
| 1240 nM | CCc1cc2c(nc1N1CCC(Oc3ccc4c(c3)OCC4)CC1)[C@H](CO)N(C)C2=O [Example 366, (R)-2-(4-((2,3-dihydrobenzofuran-6-yl)oxy)piperidin-1-yl)-3-ethyl-7-(hydroxymethyl)-6-methyl-6,7-dihydro-5H-pyrrolo[3,4-b]pyridin-5-one] |
| 57 nM | Cc1c(N2CCC(Oc3ccc4c(c3)CCOC4)CC2)nc2c(c1C)C(=O)N(C)[C@@H]2CO [Example 369, (S)-7-(hydroxymethyl)-2-(4-(isochroman-6-yloxy)piperidin-1-yl)-3,4,6-trimethyl-6,7-dihydro-5H-pyrrolo[3,4-b]pyridin-5-one] |
| 1190 nM | Cc1c(N2CCC(Oc3ccc4c(c3)CCOC4)CC2)nc2c(c1C)C(=O)N(C)[C@H]2CO [Example 370, (R)-7-(hydroxymethyl)-2-(4-(isochroman-6-yloxy)piperidin-1-yl)-3,4,6-trimethyl-6,7-dihydro-5H-pyrrolo[3,4-b]pyridin-5-one] |
| 100 nM | Cc1cc2c(nc1N1CCC(Oc3ccc4c(cnn4CCO)c3)CC1)CNC2=O [Example 371, 2-(4-((1-(2-Hydroxyethyl)-1H-indazol-5-yl)oxy)piperidin-1-yl)-3-methyl-6,7-dihydro-5H-pyrrolo[3,4-b]pyridin-5-one] |
| 634 nM | C=Cc1c(C)c(N2CCC(Oc3ccc(OC)nc3)CC2)nc2c1C(=O)NC2 [Example 372, 2-(4-((6-Methoxypyridin-3-yl)oxy)piperidin-1-yl)-3-methyl-4-vinyl-6,7-dihydro-5H-pyrrolo[3,4-b]pyridin-5-one] |
| 69 nM | Cc1cc2c(nc1N1CCC(Oc3ccc4c(c3)CC(=O)C4)CC1)CNC2=O [Example 373, 3-Methyl-2-(4-((2-oxo-2,3-dihydro-1H-inden-5-yl)oxy)piperidin-1-yl)-6,7-dihydro-5H-pyrrolo[3,4-b]pyridin-5-one] |
| 69 nM | COc1ccc(OC2CCN(c3nc4c(cc3C)C(=O)N(CCO)C4CO)CC2)cn1 (stereo not shown) [Example 375, 6-(2-Hydroxyethyl)-7-(hydroxymethyl)-2-(4-((6-methoxypyridin-3-yl)oxy)piperidin-1-yl)-3-methyl-6,7-dihydro-5H-pyrrolo[3,4-b]pyridin-5-one] |
